According to patent US8497271B2, “Modulators of G protein-coupled receptor 88” (Bristol-Myers Squibb Company, priority 2009, dated 2013):
Like-named read-outs stand apart in the source and are kept apart here.

Molecular target: G protein-coupled receptor 88 (Homo sapiens, UniProt Q9GZN0)
Test: EC50 of select compounds as GPR88 modulators (Table 2; GTPγS assay and cAMP HTRF assay are both described, and the one used is not stated)
Format: cell-based
Details: read-out: Range (EC50)
Experimental: 96 well GTPγS assay plates were purchased from Perkin Elmer. Wheat Germ Agglutinin PVT SPA beads and ^35S-GTPγS were purchased from Amersham GDP, GTPγS and all buffer reagents were from Sigma. 384 well white NBS plates were purchased from corning. Pertussis toxin was purchased from Calbiochem. All cell culture reagents were purchased from Invitrogen. Forskolin was purchased from Sigma. The cAMP HTRF kit was purchased fron Cisbio International.
The GTPγS assay buffer consisted of 10 mM MgCl2, 180 mM NaCl, 200 uM GDP, 0.167 mg/ml DTT, 1 mM EGTA and 20 mM HEPES pH7.4. This buffer was used for dilution of membranes, beads, and ^35S GTPγS components. To each well of the 96 well assay plate 48 ul assay buffer, 2 ul of 100× compound, 50 ul membrane solution (0.2 ug/ul), 50 ul ^35S GTPγS solution (0.8 nM) and 50 ul of SPA beads (10 mg/ml). Non-specific binding was determined by the addition of cold GTPγS to control wells. The plates were sealed with clear sealing tape and incubated at room temperature for 1 hour. GTPγS activity was detected using a Wallac Micro-Beta Trilux liquid scintillation counter. Non-specific binding was determined using 10 uM cold GTPγS.
The cAMP HTRF assay is modified from the Cisbio International kit procedure 62AM4PEJ. Assay plates were prepared by stamping 0.1 ul of 100× compound stock solutions diluted in DMSO or DMSO alone into 384 well NBS plates. The cAMP HTRF assay was performed using cells in suspension. The cAMP HTRF assay buffer consisted of Hank's Balanced Salt Solution (HBSS), 2 mM CaCl2, 5 mM MgCl2, 20 mM HEPES and 1 mM 3-isobutyl-1-methylxanthine (IBMX) (added fresh at the time of assay). For pertussis toxin treatment pertussis toxin (100 ng/ml) was added to culture medium for 16 hours prior to assay. Confluent cells were disrupted with cell dissociation buffer count cells then centrifuged at 1000×g for minutes. The cell pellet was resuspended in assay buffer alone for basal cAMP measurements or with 0.75 uM forskolin (added immediately prior to addition to wells) for addition to all other wells. Using a Multidrop 384 (Lab systems) 10 ul of cell suspension was added to each well containing compound or DMSO. The plates were incubated at room temperature for 30 minutes covered. During this time the cAMP standard curve was prepared as per manufacturer's instruction. At the end of the incubation 10 ul of anti-cAMP cryptate and 10 ul cAMP-XL, diluted in manufacturer's lysis buffer, were added to each well. The plated were incubated at room temperature for 60 minutes covered then read on an Envision plate reader (Perkin Elmer) and the 665 nm/620 nm fluorescence ratio determined Fluorescence ratio values were converted to molar cAMP concentrations from the standard curve using the GraphPad Prism program.

Sequence of G protein-coupled receptor 88 (Q9GZN0 whole entry, species assumed): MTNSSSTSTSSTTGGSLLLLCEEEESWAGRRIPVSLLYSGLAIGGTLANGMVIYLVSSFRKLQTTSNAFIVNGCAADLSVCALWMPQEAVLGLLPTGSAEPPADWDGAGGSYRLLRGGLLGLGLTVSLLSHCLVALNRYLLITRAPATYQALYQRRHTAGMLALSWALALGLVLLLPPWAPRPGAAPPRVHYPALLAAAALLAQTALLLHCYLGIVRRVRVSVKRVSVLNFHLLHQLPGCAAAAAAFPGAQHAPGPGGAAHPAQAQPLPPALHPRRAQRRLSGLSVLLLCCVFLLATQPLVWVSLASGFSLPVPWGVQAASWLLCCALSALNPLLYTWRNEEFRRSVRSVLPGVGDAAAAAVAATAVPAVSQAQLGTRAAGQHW

| EC50 (numeric value printed) [nM] | Compound | EC50 (class symbol X) [nM] |
| --- | --- | --- |
| – | COc1cc(-c2ccc(C)cc2)ccc1[C@H](CO)NC(=O)[C@H]1C[C@@H]1c1cccs1 [Example 12, (1S,2S)-2-Thiophen-2-yl-cyclopropanecarboxylic acid [(R)-2-hydroxy-1-(3-methoxy-4′-methyl-biphenyl-4-yl)-ethyl]-amide] | 62 to 130 |
| 81 | Cc1ccc(-c2ccc([C@H](CO)NC(=O)C3CC3c3cccs3)cc2)cc1 (stereo in doubt) [Example 5, (1S,2S)-2-Thiophen-2-yl-cyclopropanecarboxylic acid [(R)-2-hydroxy-1-(4′-methyl-biphenyl-4-yl)-ethyl]-amide] | – |
| 74 | CCCC(C)COc1ccc([C@H](CO)NC(=O)[C@H]2C[C@@H]2c2cccs2)cc1 (stereo partly drawn) [Example 15, (1S,2S)-2-Thiophen-2-yl-cyclopropanecarboxylic acid {(R)-2-hydroxy-1-[4-(2-methyl-pentyloxy)-phenyl]-ethyl}-amide] | – |
| – | CCC(CC)COc1ccc([C@H](CO)NC(=O)[C@H]2C[C@@H]2c2ccccc2)c(OC)c1 [Example 3, (1S,2S)-2-Phenyl-cyclopropanecarboxylic acid {(R)-1-[4-(2-ethyl-butoxy)-2-methoxy-phenyl]-2-hydroxy-ethyl}-amide] | 62 to 130 |

| Compound | EC50 (numeric value printed) [nM] | EC50 (class symbol X) [nM] |
| --- | --- | --- |
| CC[C@H](C)COc1ccc([C@H](CO)NC(=O)[C@H]2C[C@@H]2c2cccs2)cc1 [Example 6, (1S,2S)-2-Thiophen-2-yl-cyclopropanecarboxylic acid {(R)-2-hydroxy-1-[4-((S)-2-methyl-butoxy)-phenyl]-ethyl}-amide] | 124 | – |
